{
  "source": "patent US20260374773A1",
  "about": "“MULTI-CYCLIC IRAK AND FLT3 INHIBITING COMPOUNDS AND USES THEREOF” (CHILDREN'S HOSPITAL MEDICAL CENTER, priority 2022, published 2026)",
  "key": {"E-selectin": {"test_system": "E-selectin", "details": "with chemotherapy; AML mouse models; cited from earlier work"}, "[1]": {"test_system": "subjects with myelodysplastic syndrome", "details": "after receiving azacitidine; cited from earlier work"}, "Menin-KMT2A (MLL)": {"test_system": "Menin-KMT2A (MLL)", "details": "pre-clinical studies; cited from earlier work"}, "THP1 cells": {"test_system": "THP1 cells", "experiment": "Combination drug screening with venetoclax, Cell Titer Glo, THP1", "type": "cell-based", "details": "compound 0-20 μM, venetoclax 0-2 μM, 10 × 10, 48 h, negative = synergy", "method": "(§1) Combination drug therapy has the potential to produce enhanced effects with lower side effects not obtained using either agent alone, or beyond the additive effect of the different concentrations of the two different agents. To determine whether enhanced effects are observed in different drug combinations, combination drug screening was performed as previously described (Mathews-Griner, L. A. et al., Proc. Nat. Acad. Sci., 2014, 111:2349-2354; Lin, G. L. et al., Sci. Trans. Med., 2019, 11: eaaw0064). Briefly, 10 nL of compounds were acoustically dispensed into 1536-well white polystyrene tissue culture-treated plates with an Echo 550 acoustic liquid handler (Labcyte). Cells were then added to compound-containing plates at a density of 500-cells/well in 5 μL of medium. A 10-point custom concentration range was used for all listed drugs in a 10×10 matrix. Plates were incubated for 48 hours at standard incubator conditions covered by a stainless steel gasketed lid to prevent evaporation. 48 hours post compound addition, 3 μL of Cell Titer Glo (Promega) were added to each well and plates were incubated at room temperature for 15 minutes with the stainless-steel lid in place. Luminescence readings were taken using a Viewlux imager (PerkinElmer) with a 2 second exposure time per plate.\n(§2) Each compound was studied in combination with venetoclax at two concentration ranges of compound and venetoclax, respectively (for a total of 4 combination dose-response curves). The dose combinations that yielded the optimal synergy score, measured as excess HSA, which are reported in Tables 23 and 24 for the FLT3 mutant cell line MOLM14 (D835Y) and the FLT3 WT cell line THP1, respectively.\n(§3) Table 24 provides combination outcomes for representative compounds with venetoclax in the Cell Titer Glo assay in THP1 (FLT3 wild type) cells at 48 hours. The table provides relative excess HSA values for compounds of the disclosure used in combination with venetoclax compared to gilteritinib hemifumarate used in combination with venetoclax. A negative excess HSA score illustrates that the drug combination is better than either drug alone, wherein greater synergy is observed at larger negative values of the excess HSA score.\n(§4) Excess HSA is a measure of synergy vs. additivity or antagonism, wherein a negative excess HSA value is indicative of synergy. More information on excess HSA scores can be found in Vlot, Anna H. C. et al., Drug Discovery Today, 2019, 24(12):2286-2298. […] However, different methodologies may yield different numerical scores, and different definitions of what constitutes a deviation from mere additivity vs true drug synergy. The large negative excess HSA values provided in Tables 23 and 24 illustrate that multiple members of this structural class synergize with venetoclax. The degree to which combination therapy has to potential to produce enhanced effects with lower side effects not obtained using either agent alone, or beyond the additive effect of the different concentrations of the two different agents depends on the nature of the drugs used in the combination, and the specific doses/concentrations at which they are ultimately used in the therapeutic regimen. A negative excess HSA score illustrates that the drug combination is better than either drug alone (at the concentrations being studied). […] However, the utility in certain drug combinations vs. others should not be distinguished based on cutoffs between excess HSA scores, because the score itself is only a relative indicator that is completely dependent on experimental design and is not an absolute number. Furthermore, the concept of what constitutes clinically meaningful drug synergy is something that is still being debated, not only between pharmacologists and physicians, but amongst pharmacologists themselves. […]"}, "MOLM14 (D835Y) cells": {"test_system": "MOLM14 (D835Y) cells", "experiment": "Combination drug screening with venetoclax, Cell Titer Glo, MOLM14 (D835Y)", "type": "cell-based", "parameters": "key: relative excess HSA score; more negative = greater synergy", "details": "compound 0-0.5 μM, venetoclax 0-20 μM, 10 × 10, 48 h, negative = synergy", "method": "as §1, §2\nas §3, with “23” for “24”, “MOLM14 (D835Y)” for “THP1 (FLT3 wild type)”, “cells (a FLT3 mutant cell line)” for “cells”\nas §4"}, "AML cell lines": {"test_system": "AML cell lines", "details": "combined with a concentration of an exemplary IRAK inhibitor; cited from earlier work"}},
  "data": [
    {"smiles": "CC[C@H]1C[C@@H](C(=O)NCCNC(=O)CCOCCOCCOCCOCCOCCOCCOCCOCCOCCOCCOCCOC)C[C@@H](O[C@@H]2O[C@H](CO)[C@H](O)[C@H](O[C@@H](CC3CCCCC3)C(=O)O)[C@H]2NC(C)=O)[C@@H]1O[C@@H]1O[C@@H](C)[C@@H](O)[C@@H](O)[C@@H]1O", "note": "[Uproleselan]", "values": [
      {"measurement": "duration of mouse survival over chemotherapy alone", "setting": "E-selectin", "value": "doubling the duration of mouse survival over chemotherapy alone"}
    ]},
    {"smiles": "Nc1ncn([C@@H]2O[C@H](CO)[C@@H](O)[C@H]2O)c(=O)n1", "note": "[azacitidine]", "values": [
      {"measurement": "patients who required blood transfusions and no longer needed them", "setting": "[1]", "value": "about two-thirds"}
    ]},
    {"smiles": "CNc1nc(NC2CCN(Cc3ccc4c(cc(C#N)n4C[C@H](C)N4CCN(S(C)(=O)=O)CC4)c3C)CC2)c2cc(CC(F)(F)F)sc2n1", "note": "[KO-539]", "values": [
      {"measurement": "pharmacokinetic properties", "setting": "Menin-KMT2A (MLL)", "value": "excellent pharmacokinetic properties"},
      {"measurement": "toxicity profile", "setting": "Menin-KMT2A (MLL)", "value": "low toxicity profiles"}
    ]},
    {"smiles": "CCc1nc(C(N)=O)c(Nc2ccc(N3CCC(N4CCN(C)CC4)CC3)c(OC)c2)nc1NC1CCOCC1", "note": "[Gilteritinib hemifumarate, Gilteritinib, reference compound]", "values": [
      {"measurement": "Excess HSA", "setting": "THP1 cells", "value": "−1626"},
      {"measurement": "Excess HSA", "setting": "MOLM14 (D835Y) cells", "value": "−1556"}
    ]},
    {"smiles": "CCN(C(=O)c1cc(F)ccc1Oc1cncnc1N1CC2(CCN(C[C@H]3CC[C@H](NS(=O)(=O)CC)CC3)CC2)C1)C(C)C", "note": "[SNDX-5613]", "values": [
      {"measurement": "pharmacokinetic properties", "setting": "Menin-KMT2A (MLL)", "value": "excellent pharmacokinetic properties"},
      {"measurement": "toxicity profile", "setting": "Menin-KMT2A (MLL)", "value": "low toxicity profiles"}
    ]},
    {"smiles": "CC1(C)CCC(CN2CCN(c3ccc(C(=O)NS(=O)(=O)c4ccc(NCC5CCOCC5)c([N+](=O)[O-])c4)c(Oc4cnc5[nH]ccc5c4)c3)CC2)=C(c2ccc(Cl)cc2)C1", "note": "[venetoclax]", "values": [
      {"measurement": "increase of potency of venetoclax", "setting": "AML cell lines", "value": "~ 50 -fold"}
    ]}
  ]
}
